Test results: US20230346744A1, “SULFUR-CONTAINING COMPOUND USEFUL FOR TREATING OR PREVENTING PRESBYOPIA” (SANTEN PHARMACEUTICAL CO., LTD., priority 2020, published 2023)

Assays:
Format in all cases: in vivo
[1] = tested on: C57BL/6J mice; assay: Pharmacological Test-3: once-daily instillation of Compounds 1, 2 and 3 for 2 weeks, lens elasticity; conditions: once per day for 14 days; for Lens elasticity improvement: 2.5 μL/eye, 8-month-old mice, vs vehicle control
Procedure: The effect of once-daily instillation of each of Compounds 1, 2 and 3 for 2 weeks on the lens elasticity was examined.
(§1) A vehicle comprising 1.0% (w/v) of CO35, 0.1% (w/v) of ethyl pyruvate, 0.269% (w/v) of sodium dihydrogenphosphate monohydrate (NaH2 PO4.H2O), 0.433% (w/v) of disodium hydrogenphosphate (Na2HPO4), 0.2% (w/v) of hydroxypropyl methylcellulose, 0.5% (w/v) of NaCl, and purified water (appropriate amount) was prepared.
Each of Compounds 1 and 2 was stirred with the addition of the vehicle to give a 0.1% (w/v) solution.
To Compound 3 was added the vehicle to give a 0.1% (w/v) suspension. The resulting 0.1% (w/v) suspension was diluted with the vehicle to give a 0.03% (w/v) solution. Further, the resulting 0.03% (w/v) solution was diluted with the vehicle to give a 0.01% (w/v) solution.
After preparation, all were frozen.
1) Each test sample (2.5 μL/eye) was instilled into both eyes of 8-month-old C57BL/6J mice with a Pipetman once per day (around 9:00) for 14 days.
(§2) 2) After the final instillation, the mice were euthanized by carbon dioxide inhalation, and then the eyeballs were extracted and rinsed with Hank's balanced salt solution (HBSS).
(§3) 3) The sclera near the optic nerve was cut with a razor, the lens was removed through the incision, and the removed lens was immersed in HBSS.
(§4) 4) The lens was placed on a glass slide, and an all-in-one fluorescence microscope BZ-9000 (Keyence) was used to capture an image of the lens (Image a).
(§5) 5) Next, one cover glass (Corning(registered trade mark) 22×22 mm Square) was placed on the lens, and an image in which the thickness of the lens changed due to the weight was similarly captured (Image b).
(§6) 6) A change in the lens diameter was calculated from Equation 1 wherein the lens diameter of Image a is subtracted from the lens diameter of Image b, as described below. Then, the lens elasticity improvement of each sample group compared with the vehicle control group was calculated from Equation 2 described below. The mean value of each group was based on 10 eyes.
(§7) Change in lens diameter=Lens diameter in Image b of each test sample−Lens diameter in Image a of each test sample Equation 1
(§8) Lens elasticity improvement of each sample group=Mean change in lens diameter of each Test sample group−Mean change in lens diameter of Vehicle control group Equation 2

[2] = tested on: C57BL/6J mice; assay: Pharmacological Test-4: once-daily instillation of Compounds 3 and 4 for 2 weeks, lens elasticity; conditions: once per day for 14 days; for Lens elasticity improvement: 2.5 μL/eye, 8-month-old mice, vs vehicle control
Procedure: The effect of once-daily instillation of each of Compounds 3 and 4 for 2 weeks on the lens elasticity was examined.
as §1
Compound 3 was stirred with the addition of the vehicle to give a 0.03% (w/v) suspension.
Compound 4 was stirred with the addition of the vehicle to give a 0.1% (w/v) suspension. The resulting 0.1% (w/v) suspension was diluted with the vehicle to give a 0.03% (w/v) suspension. Further, the resulting 0.03% (w/v) suspension was diluted with the vehicle to give a 0.01% (w/v) suspension.
(§9) After preparation, all were refrigerated.
1) Each test sample (2.5 μL/eye) was instilled into both eyes of 8-month-old
C57BL/6J mice with a Pipetman once per day (around 9:00) for 14 days.
as §2, §3, §4, §5, §6, §7, §8

[3] = tested on: Japanese White rabbit; assay: Ocular irritation test-2 (McDonald-Shadduck method); set-up: key to Irritation Score of anterior segment of the eye: Discharge / Irritation Score of anterior segment of the eye: Anterior chamber flare / Irritation Score of anterior segment of the eye: Light reflex / Irritation Score of anterior segment of the eye: Iris / Irritation Score of anterior segment of the eye: Corneal opacity / Irritation Score of anterior segment of the eye: Corneal angiogenesis / Irritation Score of anterior segment of the eye: Corneal epithelial disorder / Irritation Score of anterior segment of the eye: Conjunctival hyperemia / Irritation Score of anterior segment of the eye: Conjunctival edema: —: No noteworthy findings; conditions: 50 μL/eye, 10 times at 30-minute intervals; for Irritation Score of anterior segment of the eye: Anterior chamber flare / Irritation Score of anterior segment of the eye: Conjunctival edema / Irritation Score of anterior segment of the eye: Corneal angiogenesis / Irritation Score of anterior segment of the eye: Corneal opacity / Irritation Score of anterior segment of the eye: Discharge / Irritation Score of anterior segment of the eye: Iris / Irritation Score of anterior segment of the eye: Light reflex / Irritation Score of anterior segment of the eye: Conjunctival hyperemia: 1 hour after the final instillation; for Irritation Score of anterior segment of the eye: Conjunctival hyperemia: scale +1 slight, +2 moderate, +3 severe; for Irritation Score of anterior segment of the eye: Corneal epithelial disorder: 3 hours after the final instillation
Procedure: A vehicle eye drop and 0.01% (w/v) and 0.1% (w/v) Compound 4 eye drops were prepared in the same manner as Preparation of Test sample in Pharmacological test-4.
The vehicle eye drop, and the 0.01% (w/v) and 0.1% (w/v) Compound 4 eye drops were each instilled into one eye of a Japanese White rabbit at a dose volume of 50 μL/eye with pipette 10 times at 30-minute intervals. One hour after the final instillation, ocular irritation of anterior segment of the eye was evaluated using a slit lamp according to the McDonald-Shadduck method. Observation for corneal epithelial disorder was conducted 3 hours after the final instillation.
The ocular irritation of anterior segment of the eye was scored according to the following criteria: • +1: slight; +2: moderate; +3: severe

[4] = tested on: C57BL/6J mice; assay: Pharmacological Test-5: once-daily instillation of Compounds 5, 6 and 7 for 2 weeks, lens elasticity; conditions: once per day for 14 days; for Lens elasticity improvement: 2.5 μL/eye, 8-month-old mice, vs vehicle control
Procedure: The effect of once-daily instillation of each of Compounds 5, 6, and 7 for 2 weeks on the lens elasticity was examined.
as §1
Compound 5 was stirred with the addition of the vehicle to give a 0.1% (w/v) suspension. The resulting 0.1% (w/v) suspension was diluted with the vehicle to give a 0.03% (w/v) suspension.
Compound 6 was stirred with the addition of the vehicle to give a 0.1% (w/v) suspension. The resulting 0.1% (w/v) a suspension was diluted with the vehicle to give a 0.03% (w/v) suspension.
Compound 7 was stirred with the addition of the vehicle to give a 0.1% (w/v) suspension.
as §9
EVO6 was stirred with the addition of the vehicle to give a 0.03% (w/v) solution, which was for comparison in the test for Compounds 5, 6 and 7. After preparation, it was refrigerated.
1) Each test sample (2.5 μL/eye) was instilled into both eyes of 8-month-old C57BL/6J mice with a Pipetman once per day (around 13:30) for 14 days.
as §2, §3, §4, §5
as §6, with “8” for “10”
as §7, §8

[5] = all of the concentrations of 0.01%, 0.03% and 0.1%
[6] = concentrations of 0.03% and 0.1%

## OCCCCCC(S)CCS (centres unmarked) [Compound 2, 6,8-Dimercaptooctan-1-ol]
[1]; 0.03% sample group
  Lens elasticity effect (in words): potent elasticity improving effect
[1]; 0.03% sample
  Lens elasticity improvement: 42.2 μm

## OCCCCCC1CCSS1 (centres unmarked) [Compound 3, 5-(1,2-Dithiolan-3-yl)pentan-1-ol]
[2]; 0.03% sample
  Lens elasticity improvement: 39.9 μm
[1]; 0.01% sample
  Lens elasticity improvement: 21.5 μm
[1]; 0.03% sample
  Lens elasticity improvement: 47.3 μm
[1]; 0.1% sample
  Lens elasticity improvement: 60.1 μm
[1]; [5]
  Lens elasticity effect (in words): showed an elasticity improving effect

## OCCCCC[C@@H]1CCSS1 [Compound 4]
[2]; 0.01% sample
  Lens elasticity improvement: 31.1 μm
[2]; 0.03% sample
  Lens elasticity improvement: 60.2 μm
[2]; 0.1% sample
  Lens elasticity improvement: 66.7 μm
[2]; [5]
  Lens elasticity effect (in words): showed an elasticity improving effect
[3]; 0.01% (w/v) and 0.1% (w/v) eye drops
  Irritation in anterior segment of the eye (in words): No irritation was observed
[3]; 0.01% eye drop
  Irritation Score of anterior segment of the eye: Anterior chamber flare: —
  Irritation Score of anterior segment of the eye: Conjunctival edema: —
  Irritation Score of anterior segment of the eye: Corneal angiogenesis: —
  Irritation Score of anterior segment of the eye: Corneal opacity: —
  Irritation Score of anterior segment of the eye: Discharge: —
  Irritation Score of anterior segment of the eye: Iris: —
  Irritation Score of anterior segment of the eye: Light reflex: —
  Irritation Score of anterior segment of the eye: Conjunctival hyperemia: —
  Irritation Score of anterior segment of the eye: Corneal epithelial disorder: —
[3]; 0.1% eye drop
  Irritation Score of anterior segment of the eye: Anterior chamber flare: —
  Irritation Score of anterior segment of the eye: Conjunctival edema: —
  Irritation Score of anterior segment of the eye: Corneal angiogenesis: —
  Irritation Score of anterior segment of the eye: Corneal opacity: —
  Irritation Score of anterior segment of the eye: Discharge: —
  Irritation Score of anterior segment of the eye: Iris: —
  Irritation Score of anterior segment of the eye: Light reflex: —
  Irritation Score of anterior segment of the eye: Conjunctival hyperemia: —
  Irritation Score of anterior segment of the eye: Corneal epithelial disorder: —

## OCCCCCCC1CCSS1 (centres unmarked) [Compound 5, 6-(1,2-Dithiolan-3-yl)hexan-1-ol]
[4]; 0.03% sample
  Lens elasticity improvement: 22.3 μm
[4]; 0.1% sample
  Lens elasticity improvement: 26.6 μm
[4]; [6]
  Lens elasticity effect (in words): potent elasticity improving effect

## OCCCCC1CCSS1 (centres unmarked) [Compound 6, 4-(1,2-Dithiolan-3-yl)butan-1-ol]
[4]; 0.03% sample
  Lens elasticity improvement: 40.0 μm
[4]; 0.1% sample
  Lens elasticity improvement: 58.9 μm
[4]; [6]
  Lens elasticity effect (in words): potent elasticity improving effect

## OCCOCCC1CCSS1 (centres unmarked) [Compound 7, 2-[2-(1,2-Dithiolan-3-yl)ethoxy]ethan-1-ol]
[4]; 0.1% sample group
  Lens elasticity effect (in words): potent elasticity improving effect
[4]; 0.1% sample
  Lens elasticity improvement: 41.4 μm
